Here are results for 9 compounds from ChEMBL document CHEMBL1201862, “PubChem BioAssay data set” (2004).

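Each compound was tested at five concentrations against cells in 96-well plates for 48 hours. Here, GI50 denotes the concentration required for 50% inhibition of growth.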 Activity calls are given as the source filed them. Cut-off read from the data, not from the text of the source: active = GI50 up to about 1.1 µM and inactive = higher.

Experiment in all cases: DTP human tumour cell line panel, 48 h
The test system of assay [1] is NCI-H23.
The subject of assay [2] is CCRF-CEM.
For assay [3], the system named is IGROV-1.
Assay [4] concerns COLO 205.
Assay [5] relates to SW-620.
In assay [6] the test system is MOLT-4.
For assay [7], the system named is SNB-75.
The test system of assay [8] is HOP-62.
For assay [9], the system named is NCI-H460.
Assay [10] concerns K562.
Assay [11] relates to UACC-257.
Assay [12] relates to SK-MEL-2.
The subject of assay [13] is SN12C.
For assay [14], the system named is RPMI-8226.
In assay [15] the test system is NCI/ADR-RES.
Assay [16] relates to SK-OV-3.
The subject of assay [17] is SF-539.
The subject of assay [18] is NCI-H522.
Assay [19] relates to A498.
Assay [20] deals with M14.

As to `Nc1ncnc2c1nnn2C1OC(CO)C(O)C1O` (configuration not stated), the GI50 (in general, the concentration at which growth is held to half of that of the control) is 7.82 µM (inactive) in [1]; 3.23 µM (inactive) in assay [2]; 1.19 µM (inactive) in assay [3]; 3.05 µM (inactive) in assay [4]; 2.19 µM (inactive) in assay [5]; 5.41 µM (inactive) in assay [6]. The GI50 in [7] was 9.02 µM (inactive); in assay [8] it was 6.05 µM (inactive); in assay [9], 2.13 µM (inactive); in assay [10], 1.61 µM (inactive); in [11], 8.93 µM (inactive); in assay [12] it was 1.3 µM (inactive). Also, the GI50 in assay [13] is 1.17 µM (inactive); in assay [14], 1.88 µM (inactive); in assay [15], 8.97 µM (inactive); in [16], 0.822 µM (active); in [17], 9.14 µM (inactive); in [18] it was 1.87 µM (inactive). Moreover, the GI50 in [19] was 3.94 µM (inactive).
On to `CC(C)[C@](O)(C(=O)OCC1CC[N+]2([O-])CC[C@@H](O)C12)[C@H](C)O` (some centres not stated), for which the GI50 in assay [1], in [2], in [3], in assay [4], in assay [5] and in [6] was > 375 µM (inactive) each time. The GI50 in assay [7] is 126 µM (inactive); in assay [8] it was > 375 µM (inactive); in assay [9], > 122 µM (inactive); in assay [10], > 375 µM (inactive); in assay [11] it was > 375 µM (inactive); in assay [12], 62.2 µM (inactive). The GI50 in assay [13], in assay [14], in assay [15], in [16], in [17] and in [18] was > 375 µM (inactive) throughout. Moreover, the GI50 in assay [19] is > 59.4 µM (inactive).
As to `CCOC(=O)CN1CCS/C1=N/C#N`, the GI50 is > 87.5 µM (inactive) in assay [1]; > 100 µM (inactive) in assay [2]; > 100 µM (inactive) in assay [3]; > 100 µM (inactive) in assay [4]; > 100 µM (inactive) in assay [5]; > 100 µM (inactive) in [6]. Also, the GI50 in assay [7] is > 100 µM (inactive); in assay [8], > 100 µM (inactive); in assay [9], > 31.6 µM (inactive); in assay [10], > 100 µM (inactive); in assay [11], > 100 µM (inactive); in [12] it was > 100 µM (inactive). Besides, the GI50 in assay [13], in [14], in assay [15], in assay [16], in assay [17] and in [18] was > 100 µM (inactive) throughout. Also, the GI50 in assay [19] is > 100 µM (inactive).
As to `CC(=O)Nc1ccc2oc(=O)c3ccccc3c2c1`, the GI50 in [1], in assay [2], in assay [3], in [4], in [5] and in [6] was > 100 µM (inactive) each time. The GI50 in assay [7], in [20], in [8], in assay [9], in assay [10] and in assay [11] was > 100 µM (inactive) throughout. The GI50 in assay [12], in assay [13], in [14], in assay [15], in assay [17] and in assay [18] was > 100 µM (inactive) throughout. Besides, in [19], the GI50 was > 100 µM (inactive).
Turning to `CCNC(=O)C(C)C1CCC2(C)C=CC(=O)C(C)=C2C1O` (configuration not stated), the GI50 in assay [1] was > 100 µM (inactive); in assay [2], > 100 µM (inactive); in [3] it was 98.4 µM (inactive); in assay [4] it was > 100 µM (inactive); in [5] it was > 100 µM (inactive); in assay [6] it was > 100 µM (inactive). Also, the GI50 in [7], in assay [8], in [9], in assay [10], in assay [11] and in assay [12] was > 100 µM (inactive) throughout. In addition, the GI50 in assay [13], in assay [14], in assay [15], in assay [16], in [17] and in assay [18] was > 100 µM (inactive) each time. For the same compound, in assay [19], the GI50 is > 100 µM (inactive).
Consider `O=C1OC2CC=CC1C2` (configuration not stated), for which the GI50 in [1], in assay [2], in assay [3], in assay [4], in assay [5] and in [6] was > 100 µM (inactive) in each case. For the same compound, the GI50 in [7], in assay [8], in [9], in [10], in assay [11] and in assay [12] was > 100 µM (inactive) throughout. The GI50 in assay [13], in assay [14], in [15], in [16], in assay [17] and in assay [18] was > 100 µM (inactive) each time. For the same compound, in assay [19], the GI50 is > 100 µM (inactive).
For `CC1=CC(O)C(O)C2(C)C1CC1OC(=O)C(O)C3C(C)C(O)C4(O)OCC13C42` (configuration not stated), the GI50 was 49.5 µM (inactive) in assay [1]; 7.05 µM (inactive) in assay [2]; 15.9 µM (inactive) in assay [3]; 20.1 µM (inactive) in [4]; 24.7 µM (inactive) in assay [5]; 12.2 µM (inactive) in [6]. Further, the GI50 was 6.18 µM (inactive) in assay [7]; 65.3 µM (inactive) in [8]; 7.82 µM (inactive) in [9]; 37.2 µM (inactive) in [10]; 103 µM (inactive) in assay [11]; 59.2 µM (inactive) in assay [12]. Also, the GI50 in assay [13] is 236 µM (inactive); in assay [14], 16.9 µM (inactive); in assay [15], 242 µM (inactive); in assay [16] it was 49.9 µM (inactive); in assay [17] it was 39.2 µM (inactive); in assay [18], 50.5 µM (inactive). In assay [19], the GI50 was 17.9 µM (inactive).
Consider `CSC1=C(SC)C(=O)c2cn(C)c(=O)cc2C1=O`, for which the GI50 is 4.57 µM (inactive) in assay [1]; 0.245 µM (active) in assay [2]; 11.1 µM (inactive) in assay [3]; 1.49 µM (inactive) in assay [4]; 1.74 µM (inactive) in assay [5]; 1.08 µM (active) in assay [6]. For the same compound, the GI50 is 8.67 µM (inactive) in assay [7]; 1.73 µM (inactive) in assay [20]; 9.38 µM (inactive) in assay [8]; 9.38 µM (inactive) in [9]; 0.399 µM (active) in [10]; 2.34 µM (inactive) in assay [11]. Further, the GI50 is 5.06 µM (inactive) in assay [12]; 3.27 µM (inactive) in assay [13]; 2.4 µM (inactive) in [14]; > 19.7 µM (inactive) in assay [15]; 17.5 µM (inactive) in assay [16]; 9.82 µM (inactive) in [17]. Also, the GI50 in [18] is 0.853 µM (active); in [19] it was 15.1 µM (inactive).
As for `C[N+](C)(CCO)CCN1c2ccccc2Sc2ccccc21`, the GI50 in [1], in assay [2], in assay [3], in assay [4], in [5] and in [6] was > 10 µM (inactive) throughout. Moreover, the GI50 in assay [7], in assay [20], in assay [8], in assay [9], in [10] and in assay [12] was > 10 µM (inactive) throughout. The GI50 in assay [13], in assay [14], in assay [15], in [16], in [17] and in [18] was > 10 µM (inactive) in each case. For the same compound, in assay [19], the GI50 is > 10 µM (inactive).
